In the supplement of paper PMC10307832:

How the values were obtained:
Assay in all cases: relative viability (nuclei count vs DMSO), 5 days (fraction); higher = more cells survive
Bleomycin + Palbociclib = compound: CC1=C(N=C(N=C1N)[C@H](CC(=O)N)NC[C@@H](C(=O)N)N)C(=O)N[C@@H]([C@H](C2=CN=CN2)OC3C(C(C(C(O3)CO)O)O)OC4C(C(C(C(O4)CO)O)OC(=O)N)O)C(=O)N[C@H](C)[C@H]([C@H](C)C(=O)N[C@@H]([C@@H](C)O)C(=O)NCCC5=NC(=CS5)C6=NC(=CS6)C(=O)NCCC[S+](C)C)O [Bleomycin] + CC(=O)c1c(C)c2cnc(Nc3ccc(N4CCNCC4)cn3)nc2n(C2CCCC2)c1=O [Palbociclib] (partner 0.5 µM); conditions: main component drawn
Summary of the method: (§1)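 One day after seeding in 1536-well plates, lung cancer cell lines were dosed by pin tool. Dosing was either single-drug or a fixed anchor-drug dose plus five library-drug doses (not always all listed) in √10 steps. After 5 days, nuclei were stained in one fix-and-stain step and counted on 4× images, and relative viability is the nuclei count of treated wells over that of vehicle wells, given as the median of duplicate plates.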

Etoposide + Luminespib = compound: COc1cc([C@@H]2c3cc4c(cc3[C@@H](O[C@@H]3O[C@@H]5CO[C@@H](C)O[C@H]5[C@H](O)[C@H]3O)[C@H]3COC(=O)[C@H]23)OCO4)cc(OC)c1O [Etoposide] + CCNC(=O)c1noc(-c2cc(C(C)C)c(O)cc2O)c1-c1ccc(CN2CCOCC2)cc1 [Luminespib] (partner 0.01 µM)
Summary of the method: as §1

Bleomycin + Lapatinib = compound: CC1=C(N=C(N=C1N)[C@H](CC(=O)N)NC[C@@H](C(=O)N)N)C(=O)N[C@@H]([C@H](C2=CN=CN2)OC3C(C(C(C(O3)CO)O)O)OC4C(C(C(C(O4)CO)O)OC(=O)N)O)C(=O)N[C@H](C)[C@H]([C@H](C)C(=O)N[C@@H]([C@@H](C)O)C(=O)NCCC5=NC(=CS5)C6=NC(=CS6)C(=O)NCCC[S+](C)C)O [Bleomycin] + CS(=O)(=O)CCNCc1ccc(-c2ccc3ncnc(Nc4ccc(OCc5cccc(F)c5)c(Cl)c4)c3c2)o1 [Lapatinib] (partner 2 µM); conditions: main component drawn
Summary of the method: as §1

Etoposide + Tozasertib = compound: COc1cc([C@@H]2c3cc4c(cc3[C@@H](O[C@@H]3O[C@@H]5CO[C@@H](C)O[C@H]5[C@H](O)[C@H]3O)[C@H]3COC(=O)[C@H]23)OCO4)cc(OC)c1O [Etoposide] + Cc1cc(Nc2cc(N3CCN(C)CC3)nc(Sc3ccc(NC(=O)C4CC4)cc3)n2)n[nH]1 [Tozasertib] (partner 0.1 µM)
Summary of the method: as §1

UMC-11 gave a relative viability (Bleomycin + Palbociclib; first compound 0.01 µM) of 0.311, a relative viability (Bleomycin + Palbociclib; first compound 0.03162 µM) of 0.334 and a relative viability (Bleomycin + Palbociclib; first compound 0.1 µM) of 0.355. It also gave a relative viability (Bleomycin + Palbociclib; first compound 0.3162 µM) of 0.313, a relative viability (Bleomycin + Palbociclib; first compound 1 µM) of 0.263 and a relative viability (Etoposide + Luminespib; first compound 0.01 µM) of 1. It also gave a relative viability (Etoposide + Luminespib; first compound 0.03162 µM) of 1.09, a relative viability (Etoposide + Luminespib; first compound 0.1 µM) of 0.783 and a relative viability (Etoposide + Luminespib; first compound 0.3162 µM) of 0.566. It also gave a relative viability (Etoposide + Luminespib; first compound 1 µM) of 0.279, a relative viability (Bleomycin + Lapatinib; first compound 0.01 µM) of 0.879 and a relative viability (Bleomycin + Lapatinib; first compound 0.03162 µM) of 0.819. The relative viability (Bleomycin + Lapatinib; first compound 0.1 µM) was 0.971, the relative viability (Bleomycin + Lapatinib; first compound 0.3162 µM) was 0.737 and the relative viability (Bleomycin + Lapatinib; first compound 1 µM) was 0.503. It also gave a relative viability (Etoposide + Tozasertib; first compound 0.01 µM) of 0.209, a relative viability (Etoposide + Tozasertib; first compound 0.03162 µM) of 0.205 and a relative viability (Etoposide + Tozasertib; first compound 0.1 µM) of 0.186. The relative viability (Etoposide + Tozasertib; first compound 0.3162 µM) was 0.206 and the relative viability (Etoposide + Tozasertib; first compound 1 µM) was 0.235.
